Source: patent publication US6326361A, “Gangliosides with immunosuppressive activity” (The Regents of the University of California, priority 1993, dated 2001)
pIC50: −log10 of the molar value.

How the values were obtained:
[1] = system: normal human peripheral blood mononuclear cells (PBMC); type: cell-based; conditions: for IC90: tetanus toxoid, 2-3 separate experiments/ganglioside, read-out: ID90 (ganglioside concentration required to cause 90% inhibition of the lymphoproliferative response)
[2] = system: normal human peripheral blood mononuclear cells (PBMC); assay: Inhibition of normal human lymphoproliferative responses to a panel of mitogens and soluble antigens (3H-thymidine uptake); type: cell-based; conditions: 0.5% plasma; for 3H-thymidine uptake: mean of triplicate cultures
[3] = Candida Antigen, ganglioside 2.5 μM
[4] = Candida Antigen, ganglioside 10 μM
[5] = Diptheria Toxoid, ganglioside 2.5 μM
[6] = Diptheria Toxoid, ganglioside 10 μM
[7] = Tetanus Toxoid, ganglioside 10 μM

Substance: GD1a
- IC90 [1]: 2.3 µM
- % inhibition [2, 3]: 45%
- 3H-thymidine uptake [2, 3]: 3.2 net cpm
- % inhibition [2, 4]: 84%
- 3H-thymidine uptake [2, 4]: 0.9 net cpm
- % inhibition ([2]; ConA, ganglioside 2.5 μM): 0%
- 3H-thymidine uptake ([2]; ConA, ganglioside 2.5 μM): 84.3 net cpm
- % inhibition ([2]; ConA, ganglioside 10 μM): 37%
- 3H-thymidine uptake ([2]; ConA, ganglioside 10 μM): 49.0 net cpm
- % inhibition [2, 5]: 60%
- 3H-thymidine uptake [2, 5]: 2.1 net cpm
- % inhibition [2, 6]: 85%
- 3H-thymidine uptake [2, 6]: 0.8 net cpm
- % inhibition ([2]; PHA, ganglioside 2.5 μM): 3%
- 3H-thymidine uptake ([2]; PHA, ganglioside 2.5 μM): 75.4 net cpm
- % inhibition ([2]; PHA, ganglioside 10 μM): 11%
- 3H-thymidine uptake ([2]; PHA, ganglioside 10 μM): 69.2 net cpm
- % inhibition ([2]; PWM, ganglioside 2.5 μM): 7%
- 3H-thymidine uptake ([2]; PWM, ganglioside 2.5 μM): 13.0 net cpm
- % inhibition ([2]; PWM, ganglioside 10 μM): 68%
- 3H-thymidine uptake ([2]; PWM, ganglioside 10 μM): 4.5 net cpm
- 3H-thymidine uptake ([2]; Tetanus Toxoid, ganglioside 2.5 μM): 8.8 net cpm
- % inhibition [2, 7]: 88%
- 3H-thymidine uptake [2, 7]: 3.2 net cpm

Substance: GD1b
- IC90 [1]: 4.5 µM

Substance: GT1b
- IC90 [1]: 2.8 µM

Substance: asialo-GM1 [reference compound]
- immunosuppressive activity (in words) [1]: does not substantially alter activity

Substance: galactosylceramide [asialo-GM4, reference compound]
- pIC50 ([1]; tetanus toxoid-induced lymphoproliferation, read-out: ID50 (the source's name)): 4.89

Substance: sialosylceramide [GM5]
- predicted immunosuppressive activity (in words) ([1]; inferred from Table 2 trend): very active as an immunosuppressant
